Measured values reported in patent US11739098B2 (BRISTOL-MYERS SQUIBB COMPANY, priority 2017, dated 2023).
Counter-ions that a name gives are not always drawn.

Columns and labels:
Type in all cases: cell-based
[1] = target: T1, human TLR7 (Homo sapiens, UniProt Q9NYK1); experiment: TLR7 inhibition reporter assay (HEK-Blue cells, SEAP reporter, gardiquimod stimulation); conditions: HEK-Blue cells overexpressing human TLR7, SEAP reporter, gardiquimod 7.5 μM
T1 construct: host or cells: HEK-Blue cells (HEK293-derived reporter line)
T1 sequence (Q9NYK1 27-1049): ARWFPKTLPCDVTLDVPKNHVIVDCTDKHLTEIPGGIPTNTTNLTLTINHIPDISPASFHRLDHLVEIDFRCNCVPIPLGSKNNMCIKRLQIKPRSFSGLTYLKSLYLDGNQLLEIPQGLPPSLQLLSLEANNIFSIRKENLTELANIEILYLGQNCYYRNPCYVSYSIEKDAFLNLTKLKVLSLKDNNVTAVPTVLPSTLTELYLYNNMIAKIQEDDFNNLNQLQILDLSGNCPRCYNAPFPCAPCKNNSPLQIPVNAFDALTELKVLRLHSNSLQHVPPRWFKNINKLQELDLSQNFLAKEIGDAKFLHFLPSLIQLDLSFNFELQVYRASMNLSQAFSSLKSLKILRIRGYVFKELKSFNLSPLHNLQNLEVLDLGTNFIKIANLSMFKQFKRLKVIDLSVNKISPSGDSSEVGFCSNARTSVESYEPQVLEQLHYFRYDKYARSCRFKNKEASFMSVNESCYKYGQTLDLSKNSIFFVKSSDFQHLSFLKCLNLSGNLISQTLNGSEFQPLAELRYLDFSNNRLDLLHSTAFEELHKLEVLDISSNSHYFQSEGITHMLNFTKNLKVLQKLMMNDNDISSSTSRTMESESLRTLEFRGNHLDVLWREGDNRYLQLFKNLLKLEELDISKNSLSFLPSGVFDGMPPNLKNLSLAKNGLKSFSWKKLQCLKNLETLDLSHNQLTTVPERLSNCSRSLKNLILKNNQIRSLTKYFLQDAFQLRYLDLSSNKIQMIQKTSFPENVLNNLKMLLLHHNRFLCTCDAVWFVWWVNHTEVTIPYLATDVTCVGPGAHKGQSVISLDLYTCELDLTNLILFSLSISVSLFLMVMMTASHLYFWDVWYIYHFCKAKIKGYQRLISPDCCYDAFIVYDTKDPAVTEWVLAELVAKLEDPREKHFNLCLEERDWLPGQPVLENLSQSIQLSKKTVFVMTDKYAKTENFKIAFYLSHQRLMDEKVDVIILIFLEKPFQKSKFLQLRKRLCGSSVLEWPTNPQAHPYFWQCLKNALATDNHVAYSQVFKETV
How it was run: (§1)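 Cells seeded per well (15000 TLR7, 20,000 TLR8, 25,000 TLR9); compound added over 0.05 nM–50 μM for 30 min at room temperature; agonist added (TLR7 gardiquimod 7.5 μM, TLR8 R848 15.9 μM, TLR9 ODN2006 5 nM); 22 h at 37 °C; SEAP measured; percent inhibition calculated.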

[2] = target: T2, human TLR8 (Homo sapiens, UniProt Q9NR97); experiment: TLR8 inhibition reporter assay (HEK-Blue cells, SEAP reporter, R848 stimulation); conditions: HEK-Blue cells overexpressing human TLR8, SEAP reporter, R848 15.9 μM
T2 construct: host or cells: HEK-Blue cells (HEK293-derived reporter line)
T2 sequence (Q9NR97 27-1041): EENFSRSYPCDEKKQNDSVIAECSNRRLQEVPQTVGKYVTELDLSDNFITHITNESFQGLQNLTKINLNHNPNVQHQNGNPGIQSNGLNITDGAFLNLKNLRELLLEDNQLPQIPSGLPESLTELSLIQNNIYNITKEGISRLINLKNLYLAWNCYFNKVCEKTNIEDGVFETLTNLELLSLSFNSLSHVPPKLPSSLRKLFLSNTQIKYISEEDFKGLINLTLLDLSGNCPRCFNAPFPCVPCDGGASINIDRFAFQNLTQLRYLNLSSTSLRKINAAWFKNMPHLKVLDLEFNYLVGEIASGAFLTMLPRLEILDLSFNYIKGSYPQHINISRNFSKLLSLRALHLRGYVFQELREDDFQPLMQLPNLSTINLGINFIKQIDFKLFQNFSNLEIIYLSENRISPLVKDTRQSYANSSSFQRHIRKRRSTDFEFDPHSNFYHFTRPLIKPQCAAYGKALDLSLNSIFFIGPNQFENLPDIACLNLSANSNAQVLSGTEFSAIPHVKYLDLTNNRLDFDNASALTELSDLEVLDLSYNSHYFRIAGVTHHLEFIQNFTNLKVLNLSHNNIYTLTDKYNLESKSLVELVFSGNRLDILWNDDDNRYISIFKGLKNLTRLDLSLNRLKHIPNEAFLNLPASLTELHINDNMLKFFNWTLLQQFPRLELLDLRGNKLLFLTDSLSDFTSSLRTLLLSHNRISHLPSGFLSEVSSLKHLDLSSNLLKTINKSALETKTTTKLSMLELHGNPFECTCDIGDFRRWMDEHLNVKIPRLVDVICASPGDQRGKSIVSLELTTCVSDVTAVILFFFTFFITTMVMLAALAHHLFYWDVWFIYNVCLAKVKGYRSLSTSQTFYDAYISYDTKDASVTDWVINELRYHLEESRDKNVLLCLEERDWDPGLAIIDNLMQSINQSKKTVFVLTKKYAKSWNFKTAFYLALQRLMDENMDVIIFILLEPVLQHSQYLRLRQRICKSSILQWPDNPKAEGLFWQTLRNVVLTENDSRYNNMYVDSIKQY
How it was run: as §1

[3] = target: T3, human TLR9 (Homo sapiens, UniProt Q9NR96); experiment: TLR9 inhibition reporter assay (HEK-Blue cells, SEAP reporter, ODN2006 stimulation); conditions: HEK-Blue cells overexpressing human TLR9, SEAP reporter, ODN2006 5 nM
T3 construct: host or cells: HEK-Blue cells (HEK293-derived reporter line)
T3 sequence (Q9NR96 26-1032): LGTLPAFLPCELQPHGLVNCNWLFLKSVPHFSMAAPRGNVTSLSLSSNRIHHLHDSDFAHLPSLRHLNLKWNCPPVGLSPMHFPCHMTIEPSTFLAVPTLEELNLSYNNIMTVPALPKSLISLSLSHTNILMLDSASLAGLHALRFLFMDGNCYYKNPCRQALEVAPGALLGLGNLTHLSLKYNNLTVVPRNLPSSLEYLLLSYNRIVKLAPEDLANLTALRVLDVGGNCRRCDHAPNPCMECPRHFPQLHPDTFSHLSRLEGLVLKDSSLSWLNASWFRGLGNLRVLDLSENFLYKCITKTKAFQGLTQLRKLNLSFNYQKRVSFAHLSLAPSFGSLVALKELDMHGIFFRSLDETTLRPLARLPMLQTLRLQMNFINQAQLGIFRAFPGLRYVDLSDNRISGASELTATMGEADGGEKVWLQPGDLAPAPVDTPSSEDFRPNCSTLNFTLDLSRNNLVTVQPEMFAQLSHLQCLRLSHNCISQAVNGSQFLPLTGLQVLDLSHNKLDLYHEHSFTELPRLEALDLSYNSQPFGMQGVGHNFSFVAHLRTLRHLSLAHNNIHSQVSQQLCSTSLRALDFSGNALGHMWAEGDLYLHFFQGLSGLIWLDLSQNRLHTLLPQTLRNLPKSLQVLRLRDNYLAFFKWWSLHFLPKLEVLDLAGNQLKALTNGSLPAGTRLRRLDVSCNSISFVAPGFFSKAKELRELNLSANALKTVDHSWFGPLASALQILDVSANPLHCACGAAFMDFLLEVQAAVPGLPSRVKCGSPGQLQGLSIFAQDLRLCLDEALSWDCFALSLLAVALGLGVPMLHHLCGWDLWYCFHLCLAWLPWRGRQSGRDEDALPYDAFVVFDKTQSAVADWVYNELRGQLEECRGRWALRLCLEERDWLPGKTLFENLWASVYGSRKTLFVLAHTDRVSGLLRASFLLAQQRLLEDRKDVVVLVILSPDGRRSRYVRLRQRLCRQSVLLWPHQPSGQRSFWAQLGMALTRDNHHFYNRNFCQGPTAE
How it was run: as §1

Row | Compound | IC50 [1] | IC50 [2] | IC50 [3]
1 | Cc1nc2c(-c3[nH]c4ccc(C5CCN(C(=O)CN(C)C)CC5)cc4c3C(C)C)ccc(C)n2n1 [Example 515, 1-(4-(2-(2,5-dimethyl-[1,2,4]triazolo[1,5-a]pyridin-8-yl)-3-isopropyl-1H-indol-5-yl)piperidin-1-yl)-2-(dimethylamino)ethan-1-one] | 1000 to 50000 nM | 100 to 1000 nM | 1000 to 50000 nM
2 | CCc1c(-c2cnc3[nH]ncc3c2)[nH]c2ccc(C3CCNCC3)cc12 [Example 53, 5-(3-ethyl-5-(piperidin-4-yl)-1H-indol-2-yl)-1H-pyrazolo[3,4-b]pyridine] | 100 to 1000 nM | < 100 nM | 1000 to 50000 nM
3 | Cc1cc(-c2[nH]c3ccc(C4CCN(CC(=O)N(C)C)CC4)cc3c2C(C)C)nn2ccnc12 [Example 447, 2-(4-(3-isopropyl-2-(8-methylimidazo[1,2-b]pyridazin-6-yl)-1H-indol-5-yl)piperidin-1-yl)-N,N-dimethylacetamide] | < 100 nM | < 100 nM | 1000 to 50000 nM
4 | CNCCN1CCC(c2ccc3[nH]c(-c4ccnc5[nH]ncc45)c(C(C)C)c3c2)CC1 [Example 650, 2-(4-(3-isopropyl-2-(1H-pyrazolo[3,4-b]pyridin-4-yl)-1H-indol-5-yl)piperidin-1-yl)-N-methylethanamine dihydrochloride] | < 100 nM | < 100 nM | 100 to 1000 nM
5 | Cc1cc(-c2[nH]c3ccc(C4CCN(C(=O)C5CC(=O)N(C)C5)CC4)cc3c2C(C)C)c2ccccc2n1 (stereo not drawn) [Example 638, 4-(4-(3-isopropyl-2-(2-methylquinolin-4-yl)-1H-indol-5-yl)piperidine-1-carbonyl)-1-methylpyrrolidin-2-one] | < 100 nM | 100 to 1000 nM | > 50000 nM
6 | Cc1cn2cc(-c3[nH]c4ccc(C5CCN(C(=O)C[C@H](C)O)CC5)cc4c3CC(F)F)ccc2n1 [Example 608, (S)-1-(4-(3-(2,2-difluoroethyl)-2-(2-methylimidazo[1,2-a]pyridin-6-yl)-1H-indol-5-yl)piperidin-1-yl)-3-hydroxybutan-1-one] | 100 to 1000 nM | > 3130 nM | 1000 to 50000 nM
7 | CC(C)c1c(-c2cnc3ccnn3c2)[nH]c2ccc(C3CCN(C(C)C)CC3)cc12 [Example 944, 6-(3-isopropyl-5-(1-isopropylpiperidin-4-yl)-1H-indol-2-yl)pyrazolo[1,5-a]pyrimidine] | 1000 to 50000 nM | > 3130 nM | 1000 to 50000 nM
8 | CC(C)c1c(-c2ccc3ncnn3n2)[nH]c2ccc(C3CCNCC3)cc12 [Example 242, 6-(3-isopropyl-5-(piperidin-4-yl)-1H-indol-2-yl)-[1,2,4]triazolo[1,5-b]pyridazine] | < 100 nM | < 100 nM | 1000 to 50000 nM
9 | CNC(=O)c1cn2cc(-c3[nH]c4ccc(C5CCN(CC(=O)N(C)C)CC5)cc4c3C(C)C)cc(C)c2n1 [Example 346, 6-(5-(1-(2-(dimethylamino)-2-oxoethyl)piperidin-4-yl)-3-isopropyl-1H-indol-2-yl)-N,8-dimethylimidazo[1,2-a]pyridine-2-carboxamide] | < 100 nM | < 100 nM | 1000 to 50000 nM
10 | CN1CC(C(=O)N2CCC(c3ccc4[nH]c(-c5ccc6nccn6c5)c(CC(F)F)c4c3)CC2)CC1=O (stereo not drawn) [Example 644, 4-(4-(3-(2,2-difluoroethyl)-2-(imidazo[1,2-a]pyridin-6-yl)-1H-indol-5-yl)piperidine-1-carbonyl)-1-methylpyrrolidin-2-one] | 100 to 1000 nM | 1000 to 50000 nM | > 50000 nM
11 | Cc1cn2cc(-c3[nH]c4ccc(C5CCN(C(=O)CN(C)C)CC5)cc4c3C(C)C)cc(C)c2n1 [Example 509, 2-(dimethylamino)-1-(4-(2-(2,8-dimethylimidazo[1,2-a]pyridin-6-yl)-3-isopropyl-1H-indol-5-yl)piperidin-1-yl)ethan-1-one] | < 100 nM | < 100 nM | 100 to 1000 nM
12 | CC(C)c1c(-c2ccnc3[nH]ncc23)[nH]c2ccc(C3CCN(C(=O)C4CCNCC4)CC3)cc12 [Example 649, (4-(3-isopropyl-2-(1H-pyrazolo[3,4-b]pyridin-4-yl)-1H-indol-5-yl)piperidin-1-yl)(piperidin-4-yl)methanone] | 100 to 1000 nM | 100 to 1000 nM | 1000 to 50000 nM
13 | COCCNC(=O)c1cn2cc(-c3[nH]c4ccc(C5CCNCC5)cc4c3C(C)C)cc(C)c2n1 [Example 269, 6-(3-isopropyl-5-(piperidin-4-yl)-1H-indol-2-yl)-N-(2-methoxyethyl)-8-methylimidazo[1,2-a]pyridine-2-carboxamide] | < 100 nM | < 100 nM | 100 to 1000 nM
